Results reported in patent USRE48461E1, “Modulation of androgen receptor expression” (Ionis Pharmaceuticals, Inc., priority 2012, dated 2021).

Assays:
Type in all cases: cell-based, human
C4-2B cells = assay: C4-2B cell proliferation, ASO in combination with MDV3100 (Example 21); conditions: for Proliferation (% untreated control) in C4-2B without MDV-3100: 5 days
Procedure: C4-2B cells were plated at 1,000 cells per well. […] ISIS 549148 was included as a negative control. […] After a treatment period of 5 days, the proliferative capacity of the cancer cells was measured with CellTiter 96® AQueous One Solution Cell Proliferation kit (Promega), following the manufacturer's instructions. […]

AR mRNA [1] = assay: AR RNA expression in C4-2B cells (complete, CSS+DHT medium; Example 30); conditions: 48 hrs
Procedure: (§1) Cells were plated at 1,000 cells per well. […] ISIS 549148 was included as a negative control. […] After an incubation period of 48 hrs, RNA levels of AR, PSA and TMPRSS2 were measured.
(§2) Cells were plated at 2,000 cells per well and cultured in CSS media with 1 nM DHT. […] ISIS 549148 was included as a negative control. […] After an incubation period of 48 hrs, RNA levels of AR, PSA and TMPRSS2 were measured. In the absence of DHT, AR expression in C4-2 cells was 188%, PSA expression was 43% and TMPRSS2 expression was 27% compared to the untreated control.

LNCaP cells = assay: LNCaP cell proliferation, ASO in combination with MDV3100 (Example 20); conditions: for Proliferation (% untreated control) in LNCaP without MDV-3100: 5 days
Procedure: LNCaP cells were plated at 1,000 cells per well. […] ISIS 549148 was included as a negative control. […] After a treatment period of 5 days, the proliferative capacity of the cancer cells was measured with CellTiter 96® AQueous One or CellTiter-Glo® Solution Cell Proliferation kit (Promega), following the manufacturer's instructions. […]

TMPRSS2 mRNA = assay: TMPRSS2 expression in C4-2B cells (Example 30); conditions: 48 hrs
Procedure: as §1, §2

AR V7 variant mRNA = assay: AR V7 variant RNA in 22RV1 cells; conditions: RNAiMax, 48 hrs
AR mRNA [2] = assay: Time-course AR mRNA expression in C4-2B cells (8, 24, 48 hours); conditions: C4-2B cells
Procedure: C4-2B cells were plated at 1,000 cells per well in complete medium. […] After a treatment period of 8 hours, 24 hours, and 48 hours, AR expression was measured with primer probe set hAR-LTS00943.

[3] = ASO dose 0.04 μM + 0.08 μM MDV-3100
[4] = ASO dose 0.04 μM + 0.4 μM MDV-3100
[5] = ASO dose 0.04 μM + 2.0 μM MDV-3100
[6] = ASO dose 0.04 μM + […] MDV-3100
[7] = ASO dose 0.08 μM + 0.08 μM MDV-3100
[8] = ASO dose 0.08 μM + 0.4 μM MDV-3100
[9] = ASO dose 0.08 μM + 2.0 μM MDV-3100
[10] = ASO dose 0.08 μM + […] MDV-3100
[11] = ASO dose 0.2 μM + 0.08 μM MDV-3100
[12] = ASO dose 0.2 μM + 0.4 μM MDV-3100
[13] = ASO dose 0.2 μM + 2.0 μM MDV-3100
[14] = ASO dose 1.0 μM + 0.08 μM MDV-3100
[15] = ASO dose 1.0 μM + 0.4 μM MDV-3100
[16] = ASO dose 1.0 μM + 2.0 μM MDV-3100

## GGCTACTACGCCGTCA (3-10-3 (S)-cEt gapmer, chemistry not fully specified) [ISIS 549148, reference compound]
C4-2B cells; [3]
  Proliferation (% untreated control) in C4-2B with 0.08 μM MDV-3100: 125 % untreated control
C4-2B cells; [4]
  Proliferation (% untreated control) in C4-2B with 0.4 μM MDV-3100: 110 % untreated control
C4-2B cells; [5]
  Proliferation (% untreated control) in C4-2B with 2.0 μM MDV-3100: 40 % untreated control
C4-2B cells; [6]
  Proliferation (% untreated control) in C4-2B with […] MDV-3100: 107 % untreated control
C4-2B cells; ASO dose 0.04 μM
  Proliferation (% untreated control) in C4-2B without MDV-3100: 117 % untreated control
C4-2B cells; [7]
  Proliferation (% untreated control) in C4-2B with 0.08 μM MDV-3100: 84 % untreated control
C4-2B cells; [8]
  Proliferation (% untreated control) in C4-2B with 0.4 μM MDV-3100: 89 % untreated control
C4-2B cells; [9]
  Proliferation (% untreated control) in C4-2B with 2.0 μM MDV-3100: 47 % untreated control
C4-2B cells; [10]
  Proliferation (% untreated control) in C4-2B with […] MDV-3100: 110 % untreated control
C4-2B cells; ASO dose 0.08 μM
  Proliferation (% untreated control) in C4-2B without MDV-3100: 111 % untreated control
C4-2B cells; [11]
  Proliferation (% untreated control) in C4-2B with 0.08 μM MDV-3100: 123 % untreated control
C4-2B cells; [12]
  Proliferation (% untreated control) in C4-2B with 0.4 μM MDV-3100: 88 % untreated control
C4-2B cells; [13]
  Proliferation (% untreated control) in C4-2B with 2.0 μM MDV-3100: 52 % untreated control
C4-2B cells; ASO dose 0.2 μM + […] MDV-3100
  Proliferation (% untreated control) in C4-2B with […] MDV-3100: 124 % untreated control
C4-2B cells; ASO dose 0.2 μM
  Proliferation (% untreated control) in C4-2B without MDV-3100: 118 % untreated control
C4-2B cells; [14]
  Proliferation (% untreated control) in C4-2B with 0.08 μM MDV-3100: 114 % untreated control
C4-2B cells; [15]
  Proliferation (% untreated control) in C4-2B with 0.4 μM MDV-3100: 88 % untreated control
C4-2B cells; [16]
  Proliferation (% untreated control) in C4-2B with 2.0 μM MDV-3100: 59 % untreated control
C4-2B cells; ASO dose 1.0 μM + […] MDV-3100
  Proliferation (% untreated control) in C4-2B with […] MDV-3100: 103 % untreated control
C4-2B cells; ASO dose 1.0 μM
  Proliferation (% untreated control) in C4-2B without MDV-3100: 126 % untreated control
AR mRNA [1]; CSS + DHT medium, 0.04 μM
  Percent expression of AR: 91%
AR mRNA [1]; CSS + DHT medium, 0.2 μM
  Percent expression of AR: 104%
AR mRNA [1]; CSS + DHT medium, 1 μM
  Percent expression of AR: 101%
AR mRNA [1]; CSS + DHT medium, 5.0 μM
  Percent expression of AR: 95%
AR mRNA [1]; complete medium, 0.04 μM
  Percent expression of AR: 101%
AR mRNA [1]; complete medium, 0.2 μM
  Percent expression of AR: 91%
AR mRNA [1]; complete medium, 1 μM
  Percent expression of AR: 88%
AR mRNA [1]; complete medium, 5.0 μM
  Percent expression of AR: 87%
LNCaP cells; [3]
  Proliferation (% untreated control) in LNCaP with 0.08 μM MDV-3100: 101 % untreated control
LNCaP cells; [4]
  Proliferation (% untreated control) in LNCaP with 0.4 μM MDV-3100: 57 % untreated control
LNCaP cells; [5]
  Proliferation (% untreated control) in LNCaP with 2.0 μM MDV-3100: 42 % untreated control
LNCaP cells; [6]
  Proliferation (% untreated control) in LNCaP with […] MDV-3100: 86 % untreated control
LNCaP cells; ASO dose 0.04 μM
  Proliferation (% untreated control) in LNCaP without MDV-3100: 101 % untreated control
LNCaP cells; [7]
  Proliferation (% untreated control) in LNCaP with 0.08 μM MDV-3100: 93 % untreated control
LNCaP cells; [8]
  Proliferation (% untreated control) in LNCaP with 0.4 μM MDV-3100: 65 % untreated control
LNCaP cells; [9]
  Proliferation (% untreated control) in LNCaP with 2.0 μM MDV-3100: 39 % untreated control
LNCaP cells; [10]
  Proliferation (% untreated control) in LNCaP with […] MDV-3100: 106 % untreated control
LNCaP cells; ASO dose 0.08 μM
  Proliferation (% untreated control) in LNCaP without MDV-3100: 104 % untreated control
LNCaP cells; [11]
  Proliferation (% untreated control) in LNCaP with 0.08 μM MDV-3100: 89 % untreated control
LNCaP cells; [12]
  Proliferation (% untreated control) in LNCaP with 0.4 μM MDV-3100: 50 % untreated control
LNCaP cells; [13]
  Proliferation (% untreated control) in LNCaP with 2.0 μM MDV-3100: 41 % untreated control
LNCaP cells; ASO dose 0.2 μM + […] MDV-3100
  Proliferation (% untreated control) in LNCaP with […] MDV-3100: 83 % untreated control
LNCaP cells; ASO dose 0.2 μM
  Proliferation (% untreated control) in LNCaP without MDV-3100: 91 % untreated control
LNCaP cells; [14]
  Proliferation (% untreated control) in LNCaP with 0.08 μM MDV-3100: 90 % untreated control
LNCaP cells; [15]
  Proliferation (% untreated control) in LNCaP with 0.4 μM MDV-3100: 48 % untreated control
LNCaP cells; [16]
  Proliferation (% untreated control) in LNCaP with 2.0 μM MDV-3100: 32 % untreated control
LNCaP cells; ASO dose 1.0 μM + […] MDV-3100
  Proliferation (% untreated control) in LNCaP with […] MDV-3100: 59 % untreated control
LNCaP cells; ASO dose 1.0 μM
  Proliferation (% untreated control) in LNCaP without MDV-3100: 82 % untreated control
TMPRSS2 mRNA; CSS + DHT medium, 0.04 μM
  Percent inhibition of TMPRSS2 expression: 0%
TMPRSS2 mRNA; CSS + DHT medium, 0.2 μM
  Percent inhibition of TMPRSS2 expression: 0%
TMPRSS2 mRNA; CSS + DHT medium, 1 μM
  Percent inhibition of TMPRSS2 expression: 0%
TMPRSS2 mRNA; CSS + DHT medium, 5.0 μM
  Percent inhibition of TMPRSS2 expression: 3%
TMPRSS2 mRNA; complete medium, 0.04 μM
  Percent inhibition of TMPRSS2 expression: 0%
TMPRSS2 mRNA; complete medium, 0.2 μM
  Percent inhibition of TMPRSS2 expression: 2%
TMPRSS2 mRNA; complete medium, 1 μM
  Percent inhibition of TMPRSS2 expression: 4%
TMPRSS2 mRNA; complete medium, 5.0 μM
  Percent inhibition of TMPRSS2 expression: 0%
AR V7 variant mRNA; CSS + DHT medium, 1.34 nM
  Percent inhibition of AR V7 variant: 19%
AR V7 variant mRNA; CSS + DHT medium, 4.0 nM
  Percent inhibition of AR V7 variant: 19%
AR V7 variant mRNA; CSS + DHT medium, 13.4 nM
  Percent inhibition of AR V7 variant: 32%
AR V7 variant mRNA; complete medium, 1.34 nM
  Percent inhibition of AR V7 variant: 0%
AR V7 variant mRNA; complete medium, 4.0 nM
  Percent inhibition of AR V7 variant: 0%
AR V7 variant mRNA; complete medium, 13.4 nM
  Percent inhibition of AR V7 variant: 22%
AR V7 variant mRNA; complete medium, 40 nM
  Percent inhibition of AR V7 variant: 26%
AR mRNA [2]; 0.04 μM
  Percent expression of AR compared to the control group in 8 hours: 116%
  Percent expression of AR compared to the control group in 24 hours: 87%
  Percent expression of AR compared to the control group in 48 hours: 98%
AR mRNA [2]; 0.2 μM
  Percent expression of AR compared to the control group in 8 hours: 105%
  Percent expression of AR compared to the control group in 24 hours: 85%
  Percent expression of AR compared to the control group in 48 hours: 90%
AR mRNA [2]; 1 μM
  Percent expression of AR compared to the control group in 24 hours: 87%
  Percent expression of AR compared to the control group in 48 hours: 87%
AR mRNA [2]; 5.0 μM
  Percent expression of AR compared to the control group in 8 hours: 110%
  Percent expression of AR compared to the control group in 24 hours: 107%
  Percent expression of AR compared to the control group in 48 hours: 99%
